Laboratory results taken from paper PMC5702897 (CPT: Pharmacometrics & Systems Pharmacology, 2017).
Where two headings read alike, the source gives them in different places.

Key:
[1] = 40 mg single dose, healthy volunteers, cited from earlier work
[2] = weakly basic compound; cited from earlier work
[3] = 15 to 450 mg given in fasted state; cited from earlier work

CS(=O)(=O)N1CCN(Cc2cc3nc(-c4cccc5[nH]ncc45)nc(N4CCOCC4)c3s2)CC1 [pictilisib, Pictilisib]
median AUCinf ([1]; fasted with PPI (rabeprazole)): 906 ng·h/mL | median AUCinf ([1]; fasted): 1,760 ng/mL*h | median AUCinf ([1]; fed (high-fat food)): 2,070 ng/mL*h | median AUCinf ([1]; fed with PPI (rabeprazole)): 1,180 ng/mL*h | Absorption rate constant (Ka), typical value (PPI=0, Fasted): 2.63 h⁻¹ | Absorption rate constant (Ka), typical value (PPI=0, Fed): 0.297 h⁻¹ | Absorption rate constant (Ka), typical value (PPI=1, Fasted): 1.361 h⁻¹ | Absorption rate constant (Ka), typical value (PPI=1, Fed): 0.154 h⁻¹ | Ka as percent of the fasted state value (both PPI and food present): about 6% | Absorption lag time (Tlag), typical value (healthy volunteers, 40 mg): 0.47 H | Central volume (Vc/F), typical value (healthy volunteers, 40 mg): 304.9 L | Peripheral volume (Vp/F), typical value (healthy volunteers, 40 mg): 175.9 L | BSV of absorption lag time (Tlag) (human, in vivo): 3.00% | BSV of central volume (Vc/F) (human, in vivo): 37.7% | BSV of absorption rate constant (Ka) (one value for all four states): 51.9% | decrease in Ka with PPI (regardless of food): ~50% | pKa (first value) [2]: 4.2 | dose proportionality of PK [3]: dose‐proportionality
